Assay results: patent US8541442B2, “Indole derivatives as anticancer agents” (Janssen Pharmaceutica N.V., priority 2009, dated 2013)

Assays:
[1] = tested on: non-small cell lung cancer cell line H1299; experiment: Alamar Blue cell proliferation assay, H1299; format: cell-based; details: for H1299 cell proliferation inhibition pIC50: H1299 cells
Method: (§1) For experiments in 384 wells plates the cells were seeded at a density of 5×10^3 cells/ml in Falcon 384-well culture plates (Life Technologies, Merelbeke, Belgium), black with clear bottom, in 45 μl culture medium. Cells were allowed to adhere to plastic for 24 hr. The tested compound was pre-diluted (1/50 in culture medium) and 5 μl pre-diluted compound was added to the wells. Following 4-day incubation, 10 μl of the Alamar Blue solution was added to each well and the cells were further incubated for 5 hrs (A2780) at 37° C. The fluorescence intensity was measured for each well with a Fluorescence plate reader (Fluorskan, Labsystems, 540 nm excitation and 590 nm emission)
(§2) The antiproliferative activity was calculated as percentage of remaining viable cells in treated versus control (untreated cells) conditions. Within an experiment, the result for each experimental condition is the mean of 3 replicate wells. When appropriate, the experiments were repeated to establish full concentration-response curves. When appropriate, IC50-values (concentration of the drug, needed to reduce cell growth to 50% of the control) were computed using probit analysis for graded data (Finney, D. J., Probit Analyses, 2nd Ed. Chapter 10, Graded Responses, Cambridge University Press, Cambridge 1962). Herein the effects of test compounds are expressed as pIC50 (the negative log value of the IC50-value (M)) (see Table 5A).
Compounds were also tested according to the above protocol but using other cell lines: colorectal cancer cell line HCT116, non-small cell lung cancer cell line H1299, human prostate cancer cell line DU145.

[2] = tested on: human U87 glioma tumor; experiment: In vivo anti tumour effects, U87 glioma xenograft; details: U87 xenograft in NMRI Nude mice, 20 mg/kg p.o. QD for 5 days; for % T/C day 6: day 6 after start dosing; for % T/C day 10: day 10 after start dosing
Method: Immuno-deficient (athymic) male NMRI Nude (Nu/Nu) mice (20-25 g obtained from Janvier, France) were used for these studies. Initial weight was approximately […]. All animals were maintained under SPF “full barrier” conditions with free access to food and water. Mice were group housed under a 12-h light:dark cycle (lights on at 06:00 h) at a temperature of 19 to 22° C. and 35 to 40% humidity in Techniplast type-3 IVC cages. Mice were fed a standard Laboratory chow. All experiments were carried out in accordance with the European Communities Council Directives (86/609/EEC) and had to be approved by the local ethical committee. For an established tumor xenograft model (tumor volume ˜200 mm^3), mice were randomized according to tumor volumes, with 5 mice per treatment group.
The human U87 glioma tumor cell line was derived from a patient. Cells were cultured at 37° C. in a humidified atmosphere (5% CO2, 95% air), in DMEM medium supplemented with 2 mM L-glutamine, 2.0 mM sodium pyruvate, 25 units/ml penicillin/25 μg/ml streptomycin and 10% fetal bovine serum. Cells were maintained as cell monolayer cultures, being passaged twice weekly at 3×10^6 cells per T175 flask using the following procedure. Briefly cells were washed with PBS (without Mg^2+, Ca^2+), before addition of trypsin-EDTA to the culture flasks. After detachment of cells the trypsin-EDTA was inactivated by addition of complete medium. Cell suspension was then transferred to 50 ml Falcon tube and centrifuged for 3 min at 1200 rpm. Medium was aspirated, with the cells being re-suspended in an appropriate volume of complete medium. The cells were counted in a haemocytometer and their viability was assessed by 0.25% trypan blue exclusion. An appropriate volume of cell suspension was then added to either a new T175 culture flask(s) or roller bottle containing fresh medium. For large scale-up growth of U87 tumor cells, an appropriate number of roller bottles were seeded with 0.5 to 1×10^7 cells 1 week prior to inoculation of mice. The medium was changed twice during this period, with the last change being the day prior to cell injection. Cells were collected as described above, with the exception that after centrifugation, the cells were re-suspended in cold (4° C.) serum-free medium. Mice were injected in the inguinal region with 1×10^7 cells total in a 200 μl volume.
Human U87 glioma cells were injected directly into the inguinal region of the male NMRI Nude mice (1×10^7 cells/200 μl/animal) on day 0 (D0). On day 7-10 (can vary due to tumor take/growth between cell batches) when tumor volume had reached an approximate average of 200 mm^3, mice were randomized according to tumor volume, with 5 mice per treatment group. Mice were then treated once daily (QD) with either vehicle (10% HP-β-CD) or vehicle containing test compound (20 mg/kg) by gavage (p.o.) administered in a volume of 10 ml/kg body weight for 5 days. Specific tumor measurements were taken on day 6 (24 hours post 5th dose) and then again on day 10. Tumor re-growth (after dosing has stopped) was monitored so that the time-to-reach a volume of 2000 mm^3 (TTR2000) can be recorded. This gives extra information on the duration of drug action on the tumor growth. In general, tumor size and body weights were measured twice weekly, with mice monitored daily for clinical signs of toxicity for the duration of the treatment. Clinical signs of toxicity included (but not limited to), persistent anorexia or dehydration, posture, moribund, lethargy, hypothermia and/or laboured respiration (according to the UKCCCR guidelines for welfare of animals in experimental neoplasia (The UKCCCR (UK Coordinating Committee on Cancer Research) guidelines for the welfare of animals in experimental neoplasia (July 1997); and Workman, P. et al. UKCCCR guideline. Br. J. Cancer. 1998, 77: 1-10). […]

[3] = tested on: A2780 ovarian cancer cells; experiment: Alamar Blue cell proliferation assay, A2780; format: cell-based, human; details: 4-day incubation
Method: The human A2780 ovarian cancer cells were a kind gift from Dr. T. C. Hamilton (Fox Chase Cancer Centre, Pennsylvania, U.S.A.). The cells were cultured in RPMI 1640 medium supplemented with 2 mM L-Glutamine, 50 μg/ml gentamicin and 10% fetal calf serum.
Potassium Phosphate Buffer 0.1 M (PPB) was made as follows: 2.72 gram KH2PO4 and 13.86 gram K2HPO4 were dissolved in 500 ml milli-Q H2O, the pH was adjusted to pH 7.4 and the volume was brought to 1 liter with milli-Q H2O; the buffer was filter sterilised and stored at room temperature. Resazurin stock solution (PPB-A) was prepared fresh by dissolving 45 mg resazurin in 15 ml PBS. 30 mM potassium ferricyanide (PPB-B) was prepared by dissolving 0.987 gram potassium ferricyanide in 100 ml PPB. 30 mM potassium ferrocyanide (PPB-C) was prepared by dissolving 1.266 gram potassium ferrocyanide in 100 ml PPB.
Mixture of PPB-A, PPB-B and PPB-C was prepared by mixing equal volumes of the respective solutions. Resazurin work solution (herein termed “Alamar Blue” solution) was prepared by diluting said mixture 20×(vol/vol) in PPB and filter sterilising; the Alamar Blue solution could be kept at 4° C. for a maximum of 2 weeks.
as §1, §2

SMILES: Cc1cc(Nc2ccncc2)ccc1NCCc1c[nH]c2c(C(O)C(C)C)cccc12 (centres unmarked) [Compound 22]
- H1299 cell proliferation inhibition pIC50 [1]: 5.09
- % T/C day 6 [2]: 40%
- % T/C day 10 [2]: 55%
- A2780 cell proliferation inhibition pIC50 [3]: 6.26

SMILES: Cc1cc(Nc2ccnc3c2CCC3(C)O)ccc1NCCc1c[nH]c2c(C(C)(C)O)cccc12 (single isomer, unassigned) [Compound 27]
- IC50 ([1]; Homo sapiens, NCI-H1299, H1299 cells, read-out: H1299 cell proliferation inhibition pIC50 (converted)): 1020 nM
- % T/C day 6 ([2]; 20 mg/kg): 193%
- % T/C day 10 ([2]; 20 mg/kg): 22%
- IC50 ([3]; Homo sapiens, A2780, 96 h, read-out: A2780 cell proliferation inhibition pIC50 (converted)): 141 nM

SMILES: COC1CCc2c(Nc3ccc(NCCc4c[nH]c5c(C(C)(C)O)cccc45)c(C)c3)ccnc21 (single isomer, unassigned) [Compound 28]
- H1299 cell proliferation inhibition pIC50 [1]: 6.73
- % T/C day 6 ([2]; 20 mg/kg): −280%
- % T/C day 10 ([2]; 20 mg/kg): −10%
- A2780 cell proliferation inhibition pIC50 [3]: 6.89

SMILES: Cc1cc(Nc2ccnc3c2CCC3O)ccc1NCCc1c[nH]c2c(C(C)O)cccc12 (single isomer, unassigned) [Compound 15]
- H1299 cell proliferation inhibition pIC50 [1]: 5.82
- % T/C day 6 ([2]; 20 mg/kg): 53%
- % T/C day 10 ([2]; 20 mg/kg): 88%
- A2780 cell proliferation inhibition pIC50 [3]: 7.27

SMILES: Cc1cc(Nc2ccnc3c2CCC3(C)O)ccc1NCCc1c[nH]c2c(C(C)(C)O)cccc12 (single isomer, unassigned) [Compound 26]
- H1299 cell proliferation inhibition pIC50 [1]: 6.27
- % T/C day 6 ([2]; 20 mg/kg): 354%
- % T/C day 10 ([2]; 20 mg/kg): −11%
- A2780 cell proliferation inhibition pIC50 [3]: 7.11

SMILES: Cc1cc(Nc2ccnc(CO)c2)ccc1NCCc1c[nH]c2c(C(C)(C)O)cccc12 [Compound 19]
- H1299 cell proliferation inhibition pIC50 [1]: 5.46
- % T/C day 6 [2]: 57%
- % T/C day 10 [2]: 40%
- A2780 cell proliferation inhibition pIC50 [3]: 7.34

SMILES: COC1CCc2c(Nc3ccc(NCCc4c[nH]c5c(C(C)(C)O)cccc45)c(C)c3)ccnc21 (single isomer, unassigned) [Compound 29]
- H1299 cell proliferation inhibition pIC50 [1]: 6.67
- % T/C day 6 ([2]; 20 mg/kg): −196%
- % T/C day 10 ([2]; 20 mg/kg): −13%
- A2780 cell proliferation inhibition pIC50 [3]: 7.14

SMILES: Cc1cc(Nc2ccnc3c2CCC3O)ccc1NCCc1c[nH]c2c(C(C)O)cccc12 (single isomer, unassigned) [Compound 12]
- H1299 cell proliferation inhibition pIC50 [1]: 5.2
- % T/C day 6 ([2]; 20 mg/kg): 64%
- % T/C day 10 ([2]; 20 mg/kg): 71%
- A2780 cell proliferation inhibition pIC50 [3]: 7.20
